Measured values as given in patent US10780139B1, “Hypericum revolutum extract as a vasodilator” (King Abdulaziz University, priority 2020, dated 2020).

Key:
[1] = test system: PE pre-contracted isolated aorta; experiment: vasodilating activity, isolated artery technique (PE-precontracted isolated aorta); set-up: species or system Wistar rats; settings: for vasodilation of PE precontracted isolated aortae: isolated compounds 1-10 μM cumulative, vs time control, p<0.05, FIG. 7-8
Method: Male Wistar rats 6-8 weeks old (180-200 g) (King Fahd Medical Research Center, King Abdulaziz University, Jeddah, Saudi Arabia) were used in this study. Clear polypropylene cages containing 4 rats each were used to house the animals and provided access to purified water and standard rodent pellets. The animal housing conditions applied were constant involving alternating 12 hours light and dark, a temperature of 22±3° C., a relative humidity of 50-60%, and adequate ventilation. Experimental protocol was approved by the Research Ethical Committee, Faculty of Pharmacy, King Abdulaziz University, Jeddah, Saudi Arabia (approval number 126-1439) and was conducted in accordance with the Saudi Arabia Research Bioethics and Regulations.
All animals used for the purpose of this study received a standard pellet diet and drinking water. Animals were killed by decapitation with rodent guillotine and the descending thoracic aorta was carefully excised and cleaned from fat and connective tissue.
(§1) The vasodilating activities of the methanol extract, fractions, and isolated compounds were studied using the isolated artery technique as previously described (El-Bassossy et al., 2013; El-Bassossy et al., 2016). Briefly, aorta was excised, cleaned of any fats and connective tissue, and cut into 3 mm rings. Each ring was suspended in channels filled with 25 ml of Krebs Henseleit buffer (118 mM NaCl, 4.8 mM KCl, 2.5 mM CaCl2), 1.2 mM MgSO4, 1.2 mM KH2PO4, 25 mM NaHCO3, and 11.1 mM glucose) maintained at 37° C. and continuously aerated with gas consisting of 95% oxygen and 5% carbon dioxide. The buffer solution in the channels was changed every 30 minutes.
(§2) The aortic rings were left to equilibrate for 20 minutes at a resting tension of 1500 mg±50. Primary contraction and relaxation of the aorta were then performed by adding PE (10^−5 M) followed by ACh […]. After the tension was returned to resting state, cumulative concentrations of the total extract, fractions (1-10 μg/ml) or the pure isolated compounds (1-10 μM) were added to the organ bath containing the isolated aortae precontracted with PE (10 μM). The decrease in tension was measured as a measure of vasodilation activities.
(§3) In all experiments, similar PE-precontraction tension was achieved before testing the vasodilating responses.

[2] = test system: PE pre-contracted endothelium-denuded aorta; experiment: vasodilating activity in endothelium-denuded PE-precontracted isolated aorta; set-up: species or system Wistar rats; settings: isolated compounds, 10 μM, p<0.05; FIG. 7-8
Method: as §1, §2
In another set of experiments, endothelium was mechanically denuded in order to investigate its role in the vasodilation effect.
as §3

[3] = test system: vascular NO production (isolated aorta); experiment: NO production from isolated aorta, fluorescence probe DAF-FM; set-up: species or system Wistar rats; settings: 10 μM; DAF-FM 2.5 μM; 37° C.; FIG. 9
Method: Induction of intracellular NO production from the isolated aorta by the total extract, fraction I or the pure isolated compounds was investigated using the fluorescence probe DAF-FM as described in previous work with some modifications (Ghareib et al., 2015). Similar to previous technique, the thoracic aorta was excised, cleaned of fats, and cut into approximately 6 mm pieces. Each piece was added to a separate well in a 96-well black plate, kept in dim light, containing KHB/DAF-FM (2.5 μM) mixture (37° C.) and prepared directly before commencement of the procedure. After 3 minutes, 100 μl were carefully drawn and transferred to the adjacent column of wells after which 10 μM ACh was added to one of the aortic segments and 10 μg/ml of the total extract or fraction I or 10 μM of the pure isolated compounds was added to the other wells. Again after 3 minutes, 100 μl were drawn from the wells with the aortae and transferred to the next column of wells. For the blank, a row was kept without an aorta for each concentration of ACh was treated in the same manner. The fluorescence intensity for the withdrawn volumes (and not the column containing the aortae) was then measured at λex=485 nm and […] with the use of Monochromator SPECTRAMAX® M3 plate reader (Molecular Devices, Sunnyvale, Calif., USA).

[4] = ROS scavenging ability, DPPH; settings: DPPH 240 μM; 1, 3 and 10 μM; 10-minute reaction; FIG. 10
Method: The reactive oxygen species (ROS) scavenging ability of fraction I or pure isolated compounds was studied as previously reported with some modifications (Tarkhan et al., 2019). In a 96-well clear plate, the fraction I (1-10 μg/ml) or pure isolated compounds (1-10 μM) in methanol was added to DPPH solution (240 μM) in methanol/tris (1:1 v/v). For the time control (C), methanol was used instead of the fraction or compounds. DPPH was prepared immediately before addition to the plate. The absorbance was measured at 520 nm every minute for 10 minutes with the use of Monochromator SPECTRAMAX® M3 plate reader (Molecular Devices, Sunnyvale, Calif., USA).

Row | Compound | vasodilation of PE precontracted isolated aortae [1] | vasodilation of PE-precontracted isolated aortae ([1]; maximal extent reached, 1-10 μM, FIG. 7B) | effect of endothelial denudation on vasodilation activity [2] | vascular NO production (DAF-FM fluorescence) compared with control [3] | DPPH free radical scavenging activity [4]
1 | CCC(C)C(=O)c1c(O)c(C)c(OCC=C(C)C)c(C(=O)CC(C)C)c1O (stereo not shown) [compound 1, 3,5-dihydroxy-6-methyl-1-[(3-methylbut-2-en-1-yl)oxy]-2-(3-methylbutyryl)-4-(2-methylbutyryl)-benzene] | concentration dependent vasodilation | – | – | – | –
2 | CC(C)=CCC(=O)C1CC23CC(Cl)C(C)(C)OC2(C(O)C=C(C)C)C(=O)C(C(=O)C(C)C)(C3=O)C1(C)C (stereo not shown) [compound 2, 3-chloro-9a-(1-hydroxy-3-methylbut-2-en-1-yl)-8-isobutyryl-2,2,7,7-tetramethyl-6-(4-methylpent-3-enoyl)hexahydro-2H-4a,8-methanocyclohepta[b]pyran-9,10(9aH)-dione] | reached statistical significance at concentrations of 3 and 10 μM | 50% | completely blocked the vasodilation activity | induced NO production that reached statistical significance | –
3 | CC[C@H](CC[C@@H](C)[C@H]1CC[C@H]2[C@@H]3CC=C4C[C@@H](O)CC[C@]4(C)[C@H]3CC[C@]12C)C(C)C [compound 3, β-sitosterol] | concentration dependent vasodilation | – | completely blocked the vasodilation activity | induced NO production that reached statistical significance | –
4 | COc1cc2c(=O)c3ccccc3oc2c(OC)c1OC [compound 5, 2,3,4-trimethoxy xanthone] | concentration dependent vasodilation | – | blocked the vasodilation activity | – | significant free radical scavenging activity
5 | euxanthone [compound 4] | did not show any significant vasodilation | – | did not have any significant effect | – | –
